Laboratory results: patent US20240208992A1, “MACROCYCLES AS CFTR MODULATORS” (Idorsia Pharmaceuticals Ltd, priority 2021, published 2024)

Biological target: human F508del-CFTR (Homo sapiens, UniProt P13569, DEL508-508)
Assay: F508del-CFTR cell surface expression (corrector activity), DiscoveRx ß-galactosidase complementation chemiluminescence assay in recombinant U2OS cell line;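 also: U2OS cells co-expressing ProLink-tagged F508del-CFTR and a membrane-anchored enzyme acceptor, where more surface CFTR restores β-galactosidase activity measured by chemiluminescence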
Settings: for EC50: EC50, F508del-CFTR cell surface expression; for Emax: U2OS
[1] = U2OS cell line, 16h compound incubation, geomean values
[2] = in relation to the Emax of the corrector lumacaftor (=100%), U2OS cell line, 16h compound incubation, arithmetic mean values
[3] = U2OS cells, 16h compound incubation, geomean values
[4] = in relation to Emax of corrector lumacaftor (=100%), arithmetic mean values
[5] = U2OS cells, 16h compound incubation, geomean of several measurements
[6] = in relation to the Emax of the corrector lumacaftor (=100%), U2OS cells, 16h compound incubation, arithmetic mean

human F508del-CFTR, sequence (P13569 with tags, fused parts or gaps DEL508-508): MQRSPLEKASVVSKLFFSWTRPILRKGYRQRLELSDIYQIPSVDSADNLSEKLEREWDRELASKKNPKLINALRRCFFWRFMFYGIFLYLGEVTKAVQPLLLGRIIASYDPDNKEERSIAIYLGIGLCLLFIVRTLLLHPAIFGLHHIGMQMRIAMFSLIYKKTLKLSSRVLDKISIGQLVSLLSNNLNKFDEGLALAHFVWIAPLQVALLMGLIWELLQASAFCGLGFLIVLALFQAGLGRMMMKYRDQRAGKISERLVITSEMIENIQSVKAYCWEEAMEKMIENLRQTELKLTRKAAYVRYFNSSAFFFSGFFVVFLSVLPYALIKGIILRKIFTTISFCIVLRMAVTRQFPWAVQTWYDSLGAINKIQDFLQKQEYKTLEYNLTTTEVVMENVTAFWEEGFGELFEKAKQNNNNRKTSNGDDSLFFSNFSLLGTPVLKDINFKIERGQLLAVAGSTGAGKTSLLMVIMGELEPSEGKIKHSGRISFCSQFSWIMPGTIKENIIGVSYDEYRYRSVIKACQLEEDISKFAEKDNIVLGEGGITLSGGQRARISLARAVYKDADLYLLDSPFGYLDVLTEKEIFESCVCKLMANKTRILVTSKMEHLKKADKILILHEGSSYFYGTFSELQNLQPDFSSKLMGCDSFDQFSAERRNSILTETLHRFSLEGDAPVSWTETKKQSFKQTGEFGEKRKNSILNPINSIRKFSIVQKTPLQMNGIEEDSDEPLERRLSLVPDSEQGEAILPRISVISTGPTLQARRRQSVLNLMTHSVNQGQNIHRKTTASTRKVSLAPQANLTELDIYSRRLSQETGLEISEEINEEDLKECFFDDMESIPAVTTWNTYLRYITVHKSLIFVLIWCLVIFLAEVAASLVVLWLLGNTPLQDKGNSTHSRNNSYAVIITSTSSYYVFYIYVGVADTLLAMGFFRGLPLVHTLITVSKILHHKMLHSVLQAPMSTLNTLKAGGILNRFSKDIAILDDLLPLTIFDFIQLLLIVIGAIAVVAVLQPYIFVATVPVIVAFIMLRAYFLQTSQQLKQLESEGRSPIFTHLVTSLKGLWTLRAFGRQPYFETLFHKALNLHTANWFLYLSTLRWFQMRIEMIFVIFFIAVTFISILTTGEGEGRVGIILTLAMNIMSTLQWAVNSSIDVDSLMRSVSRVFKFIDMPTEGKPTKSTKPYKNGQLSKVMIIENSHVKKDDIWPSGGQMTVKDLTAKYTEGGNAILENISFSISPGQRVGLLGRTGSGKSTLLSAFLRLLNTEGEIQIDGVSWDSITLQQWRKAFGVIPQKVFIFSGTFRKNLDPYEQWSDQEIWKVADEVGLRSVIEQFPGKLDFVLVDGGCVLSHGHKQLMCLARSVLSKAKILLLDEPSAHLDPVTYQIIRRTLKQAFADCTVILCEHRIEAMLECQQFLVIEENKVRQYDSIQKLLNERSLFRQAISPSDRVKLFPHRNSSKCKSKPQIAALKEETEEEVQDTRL

Compound: CC(C)C[C@H]1C(=O)N(CC[C@@H]2CCCCO2)CC(=O)N[C@H](Cc2ccccc2)COc2ccc3ccccc3c2C(=O)N[C@H](C(=O)NCCc2ccc3c(c2)OCO3)CC(=O)N1C [Example 362, (3S,7S,13R)-N-(2-(benzo[d][1,3]dioxol-5-yl)ethyl)-13-benzyl-7-isobutyl-6-methyl-1,5,8,11-tetraoxo-9-(2-((S)-tetrahydro-2H-pyran-2-yl)ethyl)-1,2,3,4,5,6,7,8,9,10,11,12,13,14-tetradecahydronaphtho[1,2-p][1]oxa[4,7,10,14]tetraazacycloheptadecine-3-carboxamide]
- EC50 [1]: 153 nM
- Emax [2]: 247%

Compound: COc1cccc(CCNC(=O)[C@@H]2CC(=O)N(C)[C@@H](CC3CCCC3)C(=O)N(CCC3CCCCC3)CC(=O)N[C@H](Cc3ccccc3)COc3ccc4ccccc4c3C(=O)N2)c1 (racemic) [Example 300, (3RS,7S,13R)-13-benzyl-9-(2-cyclohexylethyl)-7-(cyclopentylmethyl)-N-(3-methoxyphenethyl)-6-methyl-1,5,8,11-tetraoxo-1,2,3,4,5,6,7,8,9,10,11,12,13,14-tetradecahydronaphtho[1,2-p][1]oxa[4,7,10,14]tetraazacycloheptadecine-3-carboxamide]
- Emax [2]: 210%

Compound: COc1cccc(CCNC(=O)[C@@H]2CC(=O)N(C)[C@@H](CC(C)C)C(=O)N(CCC3CCCCC3)CC(=O)N[C@H](Cc3ccccn3)COc3ccc4ccccc4c3C(=O)N2)c1 [Example 701, (3S,7S,13R)-9-(2-cyclohexylethyl)-7-isobutyl-N-(3-methoxyphenethyl)-6-methyl-1,5,8,11-tetraoxo-13-(pyridin-2-ylmethyl)-1,2,3,4,5,6,7,8,9,10,11,12,13,14-tetradecahydronaphtho[1,2-p][1]oxa[4,7,10,14]tetraazacycloheptadecine-3-carboxamide]
- EC50 [3]: 165 nM
- Emax [4]: 268%

Compound: Cc1cc2c3c(ccc2cn1)OC[C@@H](Cc1ccccc1)NC(=O)[C@@H](Cc1nc(-c2ccc(F)cn2)no1)N(C)C(=O)[C@H](CC(C)C)N(C)C(=O)C[C@@H](C(=O)NCCn1nnc(C2CC2)n1)NC3=O [Example 907]
- EC50 [5]: 425 nM
- Emax [6]: 454%

Compound: CC(C)C[C@H]1C(=O)N2CCOC[C@@H]2C(=O)N[C@H](Cc2ccccc2)COc2ccc3ccccc3c2C(=O)N[C@H](C(=O)NCCc2ccc3c(c2)OCC3)CC(=O)N1C [Example 42, (4aR,7R,18S,22S)-7-benzyl-N-(2-(2,3-dihydrobenzofuran-6-yl)ethyl)-22-isobutyl-21-methyl-5,16,20,23-tetraoxo-1,2,4,4a,5,6,7,8,16,17,18,19,20,21,22,23-hexadecahydronaphtho[1,2-p][1,4]oxazino[3,4-f][1]oxa[4,7,10,14]tetraazacycloheptadecine-18-carboxamide]
- EC50 [1]: 353 nM
- Emax [2]: 419%

Compound: COc1ccc(OCCNC(=O)[C@@H]2CC(=O)N(C)[C@@H](CC(C)C)C(=O)N3CCOC[C@@H]3C(=O)N[C@H](Cc3ccccc3)COc3ccc4ccccc4c3C(=O)N2)cc1 [Example 34, (4aR,7R,18S,22S)-7-benzyl-22-isobutyl-N-(2-(4-methoxyphenoxy)ethyl)-21-methyl-5,16,20,23-tetraoxo-1,2,4,4a,5,6,7,8,16,17,18,19,20,21,22,23-hexadecahydronaphtho[1,2-p][1,4]oxazino[3,4-f][1]oxa[4,7,10,14]tetraazacycloheptadecine-18-carboxamide]
- EC50 [1]: 260 nM
- Emax [2]: 121%

Compound: COc1nccc2c1C(=O)N[C@H](C(=O)NCCc1cnn(C3CC3)n1)CC(=O)N(C)[C@@H](CC(C)C)C(=O)N1CCCC[C@@H]1C(=O)N[C@H](Cc1ccccc1)CO2 [Example 187, (7S,11S,17aR,20R)-20-benzyl-N-(2-(2-cyclopropyl-2H-1,2,3-triazol-4-yl)ethyl)-11-isobutyl-4-methoxy-10-methyl-5,9,12,18-tetraoxo-5,6,7,8,9,10,11,12,15,16,17,17a,18,19,20,21-hexadecahydro-14H-dipyrido[2,1-f:3′,4′-p][1]oxa[4,7,10,14]tetraazacycloheptadecine-7-carboxamide]
- EC50 [1]: 645 nM
- Emax [2]: 267%

Compound: COc1nccc2c1C(=O)N[C@H](C(=O)NCCc1nc(C3CC3)no1)CC(=O)N(C)[C@@H](CC(C)C)C(=O)N(C)[C@@H](COCc1ccccc1)C(=O)N[C@H](Cc1ccccc1)CO2 [Example 724, (3R,6RS,9S,13S)-3-benzyl-6-((benzyloxy)methyl)-N-(2-(3-cyclopropyl-1,2,4-oxadiazol-5-yl)ethyl)-9-isobutyl-16-methoxy-7,10-dimethyl-5,8,11,15-tetraoxo-2,3,4,5,6,7,8,9,10,11,12,13,14,15-tetradecahydropyrido[3,4-p][1]oxa[4,7,10,14]tetraazacycloheptadecine-13-carboxamide]
- EC50 [3]: 93 nM
- Emax [4]: 345%

Compound: Cc1cc2c3c(ccc2cn1)OC[C@@H](Cc1ccccc1)NC(=O)[C@@H](Cc1nc(C(F)(F)F)no1)N(C)C(=O)[C@H](CC(C)C)N(C)C(=O)C[C@@H](C(=O)NCCc1noc(C2CC2)n1)NC3=O [Example 889, (3S,7S,10R,13R)-13-benzyl-N-(2-(5-cyclopropyl-1,2,4-oxadiazol-3-yl)ethyl)-7-isobutyl-6,9,20-trimethyl-1,5,8,11-tetraoxo-10-((3-(trifluoromethyl)-1,2,4-oxadiazol-5-yl)methyl)-1,2,3,4,5,6,7,8,9,10,11,12,13,14-tetradecahydro-[1]oxa[4,7,10,14]tetraazacycloheptadecino[16,17-f]isoquinoline-3-carboxamide]
- EC50 [5]: 34 nM
- Emax [6]: 403%

Compound: COc1noc(CCNC(=O)[C@@H]2CC(=O)N(C)[C@@H](CC(C)C)C(=O)N(C)[C@H](Cc3nc(-c4ccc(F)cn4)no3)C(=O)N[C@H](Cc3ccccc3)COc3ccc4ncc(F)cc4c3C(=O)N2)n1 [Example 916, (3S,7S,10R,13R)-13-benzyl-20-fluoro-10-((3-(5-fluoropyridin-2-yl)-1,2,4-oxadiazol-5-yl)methyl)-7-isobutyl-N-(2-(3-methoxy-1,2,4-oxadiazol-5-yl)ethyl)-6,9-dimethyl-1,5,8,11-tetraoxo-1,2,3,4,5,6,7,8,9,10,11,12,13,14-tetradecahydro-[1]oxa[4,7,10,14]tetraazacycloheptadecino[16,17-f]quinoline-3-carboxamide]
- EC50 [5]: 196 nM
- Emax [6]: 470%

Compound: COc1cccc(CCNC(=O)[C@@H]2CC(=O)N(C)[C@@H](CC(C)C)C(=O)N(C)CC(=O)N[C@H](Cc3ccccc3)COc3cc(C)ccc3C(=O)N2)c1 [Example 233, (3R,9S,13S)-3-benzyl-9-isobutyl-N-(3-methoxyphenethyl)-7,10,18-trimethyl-5,8,11,15-tetraoxo-2,3,4,5,6,7,8,9,10,11,12,13,14,15-tetradecahydrobenzo[p][1]oxa[4,7,10,14]tetraazacycloheptadecine-13-carboxamide]
- EC50 [1]: 610 nM
- Emax [2]: 92%

Compound: COc1nccc2c1C(=O)N[C@H](C(=O)NCCn1nnc(C3CC3)n1)CC(=O)N(C)[C@@H](CC(C)C)C(=O)N1CCCC[C@@H]1C(=O)N[C@H](Cc1ccccc1)CO2 [Example 833, (7S,11S,17aR,20R)-20-benzyl-N-(2-(5-cyclopropyl-2H-tetrazol-2-yl)ethyl)-11-isobutyl-4-methoxy-10-methyl-5,9,12,18-tetraoxo-5,6,7,8,9,10,11,12,15,16,17,17a,18,19,20,21-hexadecahydro-14H-dipyrido[2,1-f:3′,4′-p][1]oxa[4,7,10,14]tetraazacycloheptadecine-7-carboxamide]
- EC50 [5]: 615 nM
- Emax [6]: 411%

Compound: COc1cccc(CCNC(=O)[C@@H]2CC(=O)N(C)[C@@H](CC(C)C)C(=O)N(C)C3(CC3)C(=O)N[C@H](Cc3ccccc3)COc3cnc4c(F)cccc4c3C(=O)N2)c1 [Example 439, (3′S,7′S,13′R)-13′-benzyl-18′-fluoro-7′-isobutyl-N-(3-methoxyphenethyl)-6′,9′-dimethyl-1′,5′,8′,11′-tetraoxo-2′,3′,4′,5′,6′,7′,8′,9′,11′,12′,13′,14′-dodecahydro-1′H-spiro[cyclopropane-1,10′-[1]oxa[4,7,10,14]tetraazacycloheptadecino[17,16-c]quinoline]-3′-carboxamide]
- EC50 [3]: 253 nM
- Emax [4]: 345%

Compound: COc1nccc2c1C(=O)N[C@H](C(=O)NCCc1noc(C3CC3)n1)CC(=O)N(C)[C@@H](CC(C)C)C(=O)N(C)[C@H](COC1CCC1)C(=O)N[C@H](Cc1ccccc1)CO2 [Example 857, (3R,6R,9S,13S)-3-benzyl-6-(cyclobutoxymethyl)-N-(2-(5-cyclopropyl-1,2,4-oxadiazol-3-yl)ethyl)-9-isobutyl-16-methoxy-7,10-dimethyl-5,8,11,15-tetraoxo-2,3,4,5,6,7,8,9,10,11,12,13,14,15-tetradecahydropyrido[3,4-p][1]oxa[4,7,10,14]tetraazacycloheptadecine-13-carboxamide]
- EC50 [5]: 407 nM
- Emax [6]: 337%

Compound: CC(C)C[C@H]1C(=O)N(CC2COc3ccccc3C2)CC(=O)N[C@H](Cc2ccccc2)COc2ccc3ccccc3c2C(=O)N[C@H](C(=O)NCCc2ccc3c(c2)OCO3)CC(=O)N1C (stereo partly drawn) [Example 700, (3S,7S,13R)—N-(2-(Benzo[d][1,3]dioxol-5-yl)ethyl)-13-benzyl-9-(((S)-chroman-3-yl)methyl)-7-isobutyl-6-methyl-1,5,8,11-tetraoxo-1,2,3,4,5,6,7,8,9,10,11,12,13,14-tetradecahydronaphtho[1,2-p][1]oxa[4,7,10,14]tetraazacycloheptadecine-3-carboxamide]
- EC50 [3]: 188 nM
- Emax [4]: 186%
